Laboratory results published in patent US4181797A, “1-N-(ω-amino-α-hydroxyalkanoyl) derivatives of 4'-deoxy-6'-N-methylkanamycin A” (Bristol-Myers Company, priority 1978, dated 1980).
In brackets after ≈: the same amount, converted by molar mass. Like-named read-outs stand apart in the source and are kept apart here.

Tests used:
[1] = system: resistant strains which contain 6'-N-acetylating enzymes; conditions: background statement; cited from earlier work
[2] = system: strains which phosphorylate the 3'-hydroxy group; conditions: background statement; cited from earlier work
P. mirabilis A9900 = test: MIC in Mueller-Hinton agar, kanamycin-sensitive strain; format: cell-based; conditions: Proteus mirabilis; P. mirabilis A9900; enzyme produced: none; Mueller-Hinton agar; read-out: MIC
Protocol: (§1) The Minimum Inhibitory Concentrations (MIC's) of BB-K311, amikacin and kanamycin A were determined in Mueller-Hinton agar against a number of kanamycin-sensitive and kanamycin-resistant strains of organisms.

P. stuartii A20615 = test: as above; format: cell-based; conditions: Providencia stuartii; P. stuartii A20615; enzyme produced: none; Mueller-Hinton agar; read-out: MIC
Protocol: as §1

B. brevis ATCC8185 = test: as above; format: cell-based; conditions: Brevibacillus brevis; B. brevis ATCC8185; enzyme produced: none; Mueller-Hinton agar; read-out: MIC
Protocol: as §1

P. vulgaris A9526 = test: as above; format: cell-based; conditions: Proteus vulgaris; P. vulgaris A9526; enzyme produced: none; Mueller-Hinton agar; read-out: MIC
Protocol: as §1

P. Morganii A20031 = test: as above; format: cell-based; conditions: Morganella morganii; P. Morganii A20031; enzyme produced: none; Mueller-Hinton agar; read-out: MIC
Protocol: as §1

S. aureus Smith = test: as above; format: cell-based; conditions: Staphylococcus aureus; S. aureus Smith; enzyme produced: none; Mueller-Hinton agar; read-out: MIC
Protocol: as §1

E. coli A9632 = test: as above; format: cell-based; conditions: Escherichia coli; E. coli A9632; enzyme produced: none; Mueller-Hinton agar; read-out: MIC
Protocol: as §1

S. marcescens A20019 = test: as above; format: cell-based; conditions: Serratia marcescens; S. marcescens A20019; enzyme produced: none; Mueller-Hinton agar; read-out: MIC
Protocol: as §1

K. pneumoniae A15130 = test: as above; format: cell-based; conditions: Klebsiella pneumoniae; K. pneumoniae A15130; enzyme produced: none; Mueller-Hinton agar; read-out: MIC
Protocol: as §1

E. cloacae A20464 = test: as above; format: cell-based; conditions: Enterobacter cloacae; E. cloacae A20464; enzyme produced: none; Mueller-Hinton agar; read-out: MIC
Protocol: as §1

B. brevis IFO 12334 = test: MIC in Mueller-Hinton agar, ANT(4')-producing strain; format: cell-based; conditions: Brevibacillus brevis, IFO12334; B. brevis IFO 12334; ANT(4')-producing; Mueller-Hinton agar; read-out: MIC
Protocol: as §1

S. epidermidis A22033 = test: as above; format: cell-based; conditions: Staphylococcus epidermidis; S. epidermidis A22033; ANT(4')-producing; Mueller-Hinton agar; read-out: MIC
Protocol: as §1

S. aureus A22054 = test: as above; format: cell-based; conditions: Staphylococcus aureus; S. aureus A22054; ANT(4')-producing; Mueller-Hinton agar; read-out: MIC
Protocol: as §1

E. coli A20363 = test: MIC in Mueller-Hinton agar, APH(3')-I producer; format: cell-based; conditions: Escherichia coli; E. coli A20363; enzyme produced: APH(3')-I; Mueller-Hinton agar; read-out: MIC
Protocol: as §1

E. cloacae A20364 = test: MIC in Mueller-Hinton agar, APH(3')-I producer; format: cell-based; conditions: Enterobacter cloacae; E. cloacae A20364; enzyme produced: APH(3')-I; Mueller-Hinton agar; read-out: MIC
Protocol: as §1

[3] = system: AAC(6')-producing and ANT(4')-producing strains; test: Average activity relative to amikacin, Table 2 strains; format: cell-based; conditions: AAC(6')-producing and ANT(4')-producing strains of Table 2
Protocol: as §1

S. epidermidis A22152 = test: MIC in Mueller-Hinton agar, AAC(6')-producing strain; format: cell-based; conditions: Staphylococcus epidermidis
Protocol: as §1

S. marcescens A21235 = test: as above; format: cell-based; conditions: Serratia marcescens; S. marcescens A21235; AAC(6')-producing; Mueller-Hinton agar; read-out: MIC
Protocol: as §1

P. aeruginosa GN4925 = test: as above; format: cell-based; conditions: Pseudomonas aeruginosa; P. aeruginosa GN4925; AAC(6')-producing; Mueller-Hinton agar; read-out: MIC
Protocol: as §1

P. aeruginosa GN315 = test: as above; format: cell-based; conditions: Pseudomonas aeruginosa; P. aeruginosa GN315; AAC(6')-producing; Mueller-Hinton agar; read-out: MIC
Protocol: as §1

S. marcescens A22382 = test: as above; format: cell-based; conditions: Serratia marcescens; S. marcescens A22382; AAC(6')-producing; Mueller-Hinton agar; read-out: MIC
Protocol: as §1

P. rettgeri HM-56 = test: as above; format: cell-based; conditions: Providencia rettgeri, HM56; P. rettgeri HM-56; AAC(6')-producing; Mueller-Hinton agar; read-out: MIC
Protocol: as §1

E. cloacae HM-43 = test: as above; format: cell-based; conditions: Enterobacter cloacae, HM43; E. cloacae HM-43; AAC(6')-producing; Mueller-Hinton agar; read-out: MIC
Protocol: as §1

S. marcescens A21226 = test: as above; format: cell-based; conditions: Serratia marcescens; S. marcescens A21226; AAC(6')-producing; Mueller-Hinton agar; read-out: MIC
Protocol: as §1

S. aureus A22153 = test: as above; format: cell-based; conditions: Staphylococcus aureus; S. aureus A22153; AAC(6')-producing; Mueller-Hinton agar; read-out: MIC
Protocol: as §1

S. marcescens A22288 = test: as above; format: cell-based; conditions: Serratia marcescens; S. marcescens A22288; AAC(6')-producing; Mueller-Hinton agar; read-out: MIC
Protocol: as §1

S. epidermidis A22211 = test: as above; format: cell-based; conditions: Staphylococcus epidermidis; S. epidermidis A22211; AAC(6')-producing; Mueller-Hinton agar; read-out: MIC
Protocol: as §1

S. aureus A22421 = test: as above; format: cell-based; conditions: Staphylococcus aureus; S. aureus A22421; AAC(6')-producing; Mueller-Hinton agar; read-out: MIC
Protocol: as §1

E. coli A2128 = test: as above; format: cell-based; conditions: Escherichia coli; E. coli A2128; AAC(6')-producing; Mueller-Hinton agar; read-out: MIC
Protocol: as §1

E. cloacae A21006 = test: MIC in Mueller-Hinton agar, APH(3')-II producer; format: cell-based; conditions: Enterobacter cloacae; E. cloacae A21006; enzyme produced: APH(3')-II; Mueller-Hinton agar; read-out: MIC
Protocol: as §1

E. coli A20107 = test: MIC in Mueller-Hinton agar, APH(3')-II producer; format: cell-based; conditions: Escherichia coli; E. coli A20107; enzyme produced: APH(3')-II; Mueller-Hinton agar; read-out: MIC
Protocol: as §1

[4] = system: aminoglycoside-sensitive and aminoglycoside-resistant strains; test: Antibacterial spectrum, Table 1 strains; format: cell-based; conditions: strains of Table 1, compared with amikacin
Protocol: as §1

E. coli A20732 = test: MIC in Mueller-Hinton agar, ANT(2") producer; format: cell-based; conditions: Escherichia coli; E. coli A20732; enzyme produced: ANT(2"); Mueller-Hinton agar; read-out: MIC
Protocol: as §1

E. coli A20895 = test: MIC in Mueller-Hinton agar, AAC(3)-I producer; format: cell-based; conditions: Escherichia coli; E. coli A20895; enzyme produced: AAC(3)-I; Mueller-Hinton agar; read-out: MIC
Protocol: as §1

[5] = system: aminoglycoside-6'-acetyltransferase [AAC(6')]; conditions: background statement; cited from earlier work
[6] = system: aminoglycoside-4'-adenylyltransferase [ANT(4')]; conditions: background statement; cited from earlier work
[7] = system: microorganisms containing aminoglycoside-inactivating enzymes; conditions: background statement; cited from earlier work

Row | SMILES | MIC (P. mirabilis A9900) [µg/mL] | MIC (P. stuartii A20615) [µg/mL] | MIC (B. brevis ATCC8185) [µg/mL] | MIC (P. vulgaris A9526) [µg/mL] | MIC (P. Morganii A20031) [µg/mL] | MIC (S. aureus Smith) [µg/mL] | MIC (E. coli A9632) [µg/mL] | MIC (S. marcescens A20019) [µg/mL] | MIC (K. pneumoniae A15130) [µg/mL] | MIC (E. cloacae A20464) [µg/mL] | MIC (B. brevis IFO 12334) [µg/mL] | MIC (S. epidermidis A22033) [µg/mL] | MIC (S. aureus A22054) [µg/mL] | MIC (E. coli A20363) [µg/mL] | MIC (E. cloacae A20364) [µg/mL] | MIC (S. marcescens A21235) [µg/mL] | MIC (P. aeruginosa GN4925) [µg/mL] | MIC (P. aeruginosa GN315) [µg/mL] | MIC (S. marcescens A22382) [µg/mL] | MIC (P. rettgeri HM-56) [µg/mL] | also measured
1 | NCC1OC(OC2C(N)CC(N)C(OC3OC(CO)C(O)C(N)C3O)C2O)C(O)CC1O (centres unmarked) [3'-deoxykanamycin] | – | – | – | – | – | – | – | – | – | – | – | – | – | – | – | – | – | – | – | – | activity against strains with 6'-N-acetylating enzymes [1]: inactivated by other resistant strains; activity against 3'-hydroxy phosphorylating strains [2]: active against strains which phosphorylate the 3'-hydroxy group
2 | CNC[C@@H]1C[C@H](O)[C@@H](O)[C@@H](O[C@H]2[C@H](O)[C@@H](O[C@H]3O[C@H](CO)[C@@H](O)[C@H](N)[C@H]3O)[C@H](NC(=O)[C@@H](O)CCN)C[C@@H]2N)O1 [BB-K311, 1-N-[L-(-)-γ-amino-α-hydroxybutyryl]-4'-deoxy-6'-N-methylkanamycin A] | 6.3 (≈ 10.8 µM) | 3.1 (≈ 5.31 µM) | 1.6 (≈ 2.74 µM) | 0.8 (≈ 1.37 µM) | 6.3 (≈ 10.8 µM) | 1.6 (≈ 2.74 µM) | 1.6 (≈ 2.74 µM) | 1.6 (≈ 2.74 µM) | 1.6 (≈ 2.74 µM) | 3.1 (≈ 5.31 µM) | 3.1 (≈ 5.31 µM) | 1.6 (≈ 2.74 µM) | 3.1 (≈ 5.31 µM) | 3.1 (≈ 5.31 µM) | 6.3 (≈ 10.8 µM) | 12.5 (≈ 21.4 µM) | 12.5 (≈ 21.4 µM) | 25 (≈ 42.8 µM) | 6.3 (≈ 10.8 µM) | 12.5 (≈ 21.4 µM) | activity relative to amikacin, on the average [3]: twice as active as amikacin; MIC (S. epidermidis A22152; S. epidermidis A22152, AAC(6')-producing, Mueller-Hinton agar, read-out: MIC): 3.1 µg/mL (≈ 5.31 µM); MIC (E. cloacae HM-43): 3.1 µg/mL (≈ 5.31 µM); MIC (S. marcescens A21226): 3.1 µg/mL (≈ 5.31 µM); MIC (S. aureus A22153): 12.5 µg/mL (≈ 21.4 µM); MIC (S. marcescens A22288): 3.1 µg/mL (≈ 5.31 µM); MIC (S. epidermidis A22211): 12.5 µg/mL (≈ 21.4 µM); MIC (S. aureus A22421): 12.5 µg/mL (≈ 21.4 µM); MIC (E. coli A2128): 3.1 µg/mL (≈ 5.31 µM); MIC (E. cloacae A21006): 3.1 µg/mL (≈ 5.31 µM); MIC (E. coli A20107): 6.3 µg/mL (≈ 10.8 µM); antibacterial spectrum [4]: antibacterial spectrum similar to amikacin; MIC (E. coli A20732): 1.6 µg/mL (≈ 2.74 µM); MIC (E. coli A20895): 3.1 µg/mL (≈ 5.31 µM)
3 | NCC[C@H](O)C(=O)N[C@@H]1C[C@H](N)[C@@H](O[C@H]2O[C@H](CN)[C@@H](O)[C@H](O)[C@H]2O)[C@H](O)[C@H]1O[C@H]1O[C@H](CO)[C@@H](O)[C@H](N)[C@H]1O [Amikacin, 1-N-[L-(-)-γ-amino-α-hydroxybutyryl]kanamycin A] | 1.6 (≈ 2.73 µM) | 1.6 (≈ 2.73 µM) | 0.8 (≈ 1.37 µM) | 0.8 (≈ 1.37 µM) | 1.6 (≈ 2.73 µM) | 0.8 (≈ 1.37 µM) | 0.8 (≈ 1.37 µM) | 1.6 (≈ 2.73 µM) | 1.6 (≈ 2.73 µM) | 3.1 (≈ 5.29 µM) | 6.3 (≈ 10.8 µM) | 6.3 (≈ 10.8 µM) | 6.3 (≈ 10.8 µM) | 1.6 (≈ 2.73 µM) | 3.1 (≈ 5.29 µM) | 25 (≈ 42.7 µM) | 12.5 (≈ 21.3 µM) | 50 (≈ 85.4 µM) | 12.5 (≈ 21.3 µM) | > 100 | susceptibility to AAC(6') [5]: still susceptible; susceptibility to ANT(4') [6]: still susceptible; MIC (S. epidermidis A22152; A22152): 3.1 µg/mL (≈ 5.29 µM); MIC (E. cloacae HM-43): > 100 µg/mL; MIC (S. marcescens A21226): 6.3 µg/mL (≈ 10.8 µM); MIC (S. aureus A22153): 12.5 µg/mL (≈ 21.3 µM); MIC (S. marcescens A22288): 6.3 µg/mL (≈ 10.8 µM); MIC (S. epidermidis A22211): 12.5 µg/mL (≈ 21.3 µM); MIC (S. aureus A22421): 12.5 µg/mL (≈ 21.3 µM); MIC (E. coli A2128): 3.1 µg/mL (≈ 5.29 µM); effectiveness against enzyme-containing microorganisms [7]: effective against a wide variety of microorganisms containing aminoglycoside-inactivating enzymes; MIC (E. cloacae A21006): 1.6 µg/mL (≈ 2.73 µM); MIC (E. coli A20107): 1.6 µg/mL (≈ 2.73 µM); MIC (E. coli A20732): 0.8 µg/mL (≈ 1.37 µM); MIC (E. coli A20895): 0.8 µg/mL (≈ 1.37 µM)
